# Data: US20200297862A1, “METHODS OF USING BISPECIFIC ANTIGEN-BINDING CONSTRUCTS TARGETING HER2” (Zymeworks Inc., priority 2016, published 2020)
# Read-outs that look alike come from different tables or passages of the source.
# Experiments:
# [1] = molecular target: recombinant human HER2 (Homo sapiens, UniProt P04626); experiment: SPR binding of captured antibody to HER2 at varying antibody capture levels
# Description: An SPR assay was used to evaluate the mechanism by which an exemplary anti-HER2 biparatopic antibody binds to HER2 ECD; specifically, to understand whether both paratopes of one biparatopic antibody molecule can bind to one HER2 ECD (Cis binding; 1:1 antibody to HER2 molecules) or if each paratope of one biparatopic antibody can bind two different HER2 ECDs (Trans binding; 1:2 antibody to HER2 molecules). […] The correlation between a reduced (slower) off-rate with increasing antibody capture levels (surface density) is an indication of Trans binding (i.e. one antibody molecule binding to two HER2 molecules.
# Between 2000 and 4000 RU of anti-human Fc injected at concentration between 5 and 10 μg/ml was immobilized on a CMS chip using standard amine coupling. […] HER2 dilutions were analyzed in duplicate. Sensograms were fit globally to a 1: 1 Langmuir binding model. All experiments were conducted at 25° C.
# The following experiment was conducted to compare HER2 binding kinetics (kd, off-rate) of exemplary anti-HER2 ECD2×ECD4 biparatopic antibodies when captured at varying surface densities by SPR.
# [2] = tested on: FaDu xenograft; type: in vivo; conditions: for median survival: study duration 59 days
# Description: FaDu cells are derived from squamous cell cancer of the head and neck that is HER2 low, non-HER2 gene amplified, HER3+, EGFR+ and highly sensitive to Cisplatin at the MTD.
# Tumor cell suspensions were implanted subcutaneously into athymic nude mice. […] Cisplatin was purchased and provided for the study by Charles River Laboratories (Morrisville, N.C.). Animals were treated according to Regimen 1 at Day 1, followed by Regimen 2 on subsequent days as noted in Table A4.
# [3] = tested on: JIMT-1 cells; experiment: Cellular staining and location by confocal microscopy at 1, 3 and 16 h; type: cell-based, human; conditions: 200 nM antibody, 1 h, 3 h
# Description: Cells were gently washed two times with warmed sterile PBS (500 ml/well). Cells were fixed with 250 ml of 10% formalin/PBS solution for 10 min at RT. The fixed cells were washed three times with PBS (500 μl/well), permeabilized with 250 μl/well of PBS containing 0.2% Triton X-100 for 5 min, and washed three times with 500 μl/well PBS. Cells were blocked with 500 μl/well of PBS+5% goat serum for 1 h at RT. […] Cells were washed three times with 500 μl/well of PBS and the coverslips containing fixed cells were then mounted on a slide using Prolong gold anti-fade with DAPI (Life Technologies; # P36931). 60× single images were acquired using Olympus FV1000 Confocal microscope.
# [4] = Thermal stability by DSC; type: physicochemical
# Description: DSC was performed in the MicroCal™ VP-Capillary DSC (GE Healthcare) using a purified protein sample (anti-HER2 biparatopic antibodies and anti-HER2 biparatopic-ADCs) adjusted to about 0.3 mg/ml in PBS. The sample was scanned from 20 to 100° C. at a 60° C./hr rate, with low feedback, 8 sec filter, 5 min preTstat, and 70 psi nitrogen pressure. The resulting thermogram was analyzed using Origin 7 software.
# The DSC was measured before and after SEC purification.
# [5] = tested on: HBCx-5 xenograft; experiment: Trastuzumab resistant breast cancer PDX, ADC (Example 20); type: in vivo, athymic nude mice; conditions: Day 43
# Description: Dosing for each group was as follows:
# A) IgG control was dosed intravenously with a loading dose of 15 mg/kg on study day 1 and maintenance doses of 10 mg/kg administered on study days 4, 8, 11, 15, 18, 22, and 25
# Tumor volume was measured throughout the course of the study, and the mean tumor volume, T/C ratio, number of responders, complete response, and zero residual disease parameters were assessed at day 43.
# [6] = Kaplan-Meier survival, log-rank test
molecule,measurement,setting,value
"v4182: monovalent anti-HER2 antibody, pertuzumab Fab on chain A; the OA of Table 11D",kd (1/s) over a range of antibody capture levels,[1],no change in kd values
N.N.[Cl][Pt][Cl] [cisplatin],RECIST Scores CR(TV < 20 mm^3),"[2]; Day 25, animals/group",0/15
same,RECIST Scores PD(>20% baseline growth),"[2]; Day 25, animals/group",15/15
same,RECIST Scores PR(>30% baseline regression),"[2]; Day 25, animals/group",0/15
same,RECIST Scores SD(neither PD or PR),"[2]; Day 25, animals/group",0/15
same,Mean TV % Δ from base line,"[2]; Day 25, regimens of Table A4",(782%)
same,Treatment/Control Ratio,"[2]; Day 25, regimens of Table A4",0.54
same,Mean TV,"[2]; Day 25, regimens of Table A4 (antibodies 15 then 10 mg/kg iv; cisplatin 2 mg/kg ip)",1070 mm^3
same,Log Rank Summary (survival) vs 6336,[2]; [6],n/s
same,Log Rank Summary (survival) vs 6908,[2]; [6],★★★ (★★★ = P < 0.001)
same,Log Rank Summary (survival) vs 10000,[2]; [6],★ (★ = P < 0.05)
same,Median Time to Progression,[2]; regimens of Table A4,8.4 days
same,median survival,[2],40 days
same,median survival,[2]; euthanized when tumor volume exceeded 2000 mm^3,40 days
"v4184: bivalent anti-HER2 antibody, pertuzumab Fabs, heterodimeric Fc, pertuzumab analog",cellular staining and location,[3],"pronounced plasma membrane staining at the 1, 3 and 16 h time points"
"v9996: monovalent anti-HER2 antibody, pertuzumab Fab with Y96A in VL and T30A/A49G/L69F in VH",DSC post-SEC ΔTm wrt WT (C),"[4]; after SEC purification, WT = v10013",−0.7 C
same,DSC pre-SEC ΔTm wrt WT (C),"[4]; before SEC purification, WT = v10013",−0.2 C
same,DSC post-SEC Tm (C),"[4]; one-armed antibody, after SEC purification",77.2 C
same,DSC pre-SEC Tm (C),"[4]; one-armed antibody, before SEC purification",77.2 C
T-DM1,Complete response (>10% baseline regression),[5],1/7
same,Mean TV % change from Baseline,[5],+65%
same,Mean TV (mm3),[5],193 mm3
same,Responders (TV < 50% of control),[5],6/7
same,T/C (IgG) ratio,[5],0.21
same,Zero residual disease (TV < 20 mm3),[5],0/7
